Results from ChEMBL document CHEMBL3991601, “The target landscape of clinical kinase drugs” (Science, 2017).
The source made the active and inactive calls. For most assays here, no stated cut-off is given here; in the data, actives have a measured Kd and inactives only a lower limit.

Columns and labels:
[1] = molecular target: T1, Mitogen-activated protein kinase kinase kinase 5 (Homo sapiens, UniProt Q99683)
T1 sequence (Q99683 whole entry): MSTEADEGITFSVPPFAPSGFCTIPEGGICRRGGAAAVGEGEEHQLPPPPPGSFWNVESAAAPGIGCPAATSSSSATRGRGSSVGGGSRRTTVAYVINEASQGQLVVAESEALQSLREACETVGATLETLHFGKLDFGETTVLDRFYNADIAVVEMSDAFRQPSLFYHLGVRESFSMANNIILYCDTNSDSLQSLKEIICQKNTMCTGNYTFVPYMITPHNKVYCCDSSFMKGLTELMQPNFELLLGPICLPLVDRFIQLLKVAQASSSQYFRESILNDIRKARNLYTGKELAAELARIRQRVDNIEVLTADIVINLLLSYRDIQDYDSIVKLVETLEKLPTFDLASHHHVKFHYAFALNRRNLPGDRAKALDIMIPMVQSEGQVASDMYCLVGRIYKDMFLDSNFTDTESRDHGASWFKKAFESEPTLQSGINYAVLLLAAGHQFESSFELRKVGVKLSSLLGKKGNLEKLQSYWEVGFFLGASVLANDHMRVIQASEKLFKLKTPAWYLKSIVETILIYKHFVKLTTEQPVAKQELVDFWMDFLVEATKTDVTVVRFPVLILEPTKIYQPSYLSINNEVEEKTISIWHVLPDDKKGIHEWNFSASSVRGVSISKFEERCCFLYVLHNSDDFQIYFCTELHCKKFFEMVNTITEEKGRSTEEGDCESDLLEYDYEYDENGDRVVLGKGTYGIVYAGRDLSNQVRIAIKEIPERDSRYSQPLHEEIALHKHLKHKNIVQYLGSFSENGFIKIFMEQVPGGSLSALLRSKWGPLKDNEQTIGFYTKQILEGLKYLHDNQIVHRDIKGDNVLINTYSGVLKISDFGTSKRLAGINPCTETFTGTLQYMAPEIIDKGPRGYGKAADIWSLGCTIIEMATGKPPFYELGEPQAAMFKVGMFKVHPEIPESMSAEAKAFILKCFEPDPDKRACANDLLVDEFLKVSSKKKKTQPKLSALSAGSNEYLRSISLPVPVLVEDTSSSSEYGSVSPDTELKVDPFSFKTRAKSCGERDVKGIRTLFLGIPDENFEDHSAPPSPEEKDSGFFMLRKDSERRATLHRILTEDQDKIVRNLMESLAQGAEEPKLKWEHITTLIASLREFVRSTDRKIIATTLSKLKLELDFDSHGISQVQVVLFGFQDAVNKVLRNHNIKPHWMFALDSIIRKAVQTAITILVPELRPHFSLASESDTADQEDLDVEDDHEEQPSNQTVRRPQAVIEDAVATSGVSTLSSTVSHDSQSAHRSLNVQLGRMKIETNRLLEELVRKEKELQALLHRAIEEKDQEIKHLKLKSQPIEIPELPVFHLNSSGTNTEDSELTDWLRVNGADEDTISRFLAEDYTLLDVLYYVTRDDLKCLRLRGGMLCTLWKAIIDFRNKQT

[2] = molecular target: Adenylate kinase 2, mitochondrial (Homo sapiens, UniProt P54819)
Aurora kinase A = molecular target: T2, Aurora kinase A (Homo sapiens, UniProt O14965)
T2 sequence (O14965 whole entry): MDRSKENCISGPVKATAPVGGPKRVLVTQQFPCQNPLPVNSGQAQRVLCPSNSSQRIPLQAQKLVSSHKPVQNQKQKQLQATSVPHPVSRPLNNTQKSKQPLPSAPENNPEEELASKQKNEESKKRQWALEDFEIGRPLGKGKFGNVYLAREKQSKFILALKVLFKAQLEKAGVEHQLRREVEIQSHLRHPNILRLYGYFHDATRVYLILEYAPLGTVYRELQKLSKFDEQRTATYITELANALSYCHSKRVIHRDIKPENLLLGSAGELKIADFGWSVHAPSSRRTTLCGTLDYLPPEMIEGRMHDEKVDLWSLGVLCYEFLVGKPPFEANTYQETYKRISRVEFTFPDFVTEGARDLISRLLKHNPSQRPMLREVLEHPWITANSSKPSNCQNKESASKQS

Activin receptor type-1 = molecular target: T3, Activin receptor type-1 (Homo sapiens, UniProt Q04771)
T3 sequence (Q04771 whole entry): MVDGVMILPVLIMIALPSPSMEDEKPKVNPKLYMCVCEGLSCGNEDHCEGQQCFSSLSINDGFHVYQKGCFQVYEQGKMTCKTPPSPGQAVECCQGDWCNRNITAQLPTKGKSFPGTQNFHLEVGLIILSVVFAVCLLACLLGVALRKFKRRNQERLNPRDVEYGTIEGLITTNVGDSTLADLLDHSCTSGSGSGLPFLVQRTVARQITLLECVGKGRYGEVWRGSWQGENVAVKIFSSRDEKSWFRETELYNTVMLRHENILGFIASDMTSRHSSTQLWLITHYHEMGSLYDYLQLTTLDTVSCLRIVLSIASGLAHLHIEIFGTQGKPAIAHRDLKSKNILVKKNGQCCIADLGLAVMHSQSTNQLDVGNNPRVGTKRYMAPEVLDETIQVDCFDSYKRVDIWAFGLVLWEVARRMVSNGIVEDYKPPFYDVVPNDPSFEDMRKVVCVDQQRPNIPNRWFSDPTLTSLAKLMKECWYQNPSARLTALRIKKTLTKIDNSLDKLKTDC

[3] = molecular target: Mitogen-activated protein kinase kinase kinase kinase 1 (Homo sapiens, UniProt Q92918)
Sequence of Mitogen-activated protein kinase kinase kinase kinase 1 (Q92918 whole entry): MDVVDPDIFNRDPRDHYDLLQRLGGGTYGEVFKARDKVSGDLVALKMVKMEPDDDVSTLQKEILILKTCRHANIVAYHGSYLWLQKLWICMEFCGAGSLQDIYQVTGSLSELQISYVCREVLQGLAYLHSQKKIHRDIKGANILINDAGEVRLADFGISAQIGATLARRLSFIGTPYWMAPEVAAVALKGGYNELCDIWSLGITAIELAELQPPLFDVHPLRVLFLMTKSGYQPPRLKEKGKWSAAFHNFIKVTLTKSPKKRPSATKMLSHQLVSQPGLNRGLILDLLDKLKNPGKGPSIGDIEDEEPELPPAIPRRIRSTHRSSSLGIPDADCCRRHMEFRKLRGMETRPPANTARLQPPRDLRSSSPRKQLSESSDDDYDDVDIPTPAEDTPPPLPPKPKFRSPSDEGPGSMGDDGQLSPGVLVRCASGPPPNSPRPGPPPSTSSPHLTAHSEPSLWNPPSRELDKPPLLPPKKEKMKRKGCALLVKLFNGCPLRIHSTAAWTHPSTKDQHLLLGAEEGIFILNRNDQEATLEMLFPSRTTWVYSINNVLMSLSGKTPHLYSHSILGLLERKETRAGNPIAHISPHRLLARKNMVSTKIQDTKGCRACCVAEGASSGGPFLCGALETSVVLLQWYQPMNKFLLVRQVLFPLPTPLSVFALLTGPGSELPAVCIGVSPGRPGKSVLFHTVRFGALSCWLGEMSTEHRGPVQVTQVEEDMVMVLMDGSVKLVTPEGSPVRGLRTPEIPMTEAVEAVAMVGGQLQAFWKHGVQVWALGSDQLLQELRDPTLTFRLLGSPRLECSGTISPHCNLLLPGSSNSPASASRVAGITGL

[4] = molecular target: T4, Serine/threonine-protein kinase STK11 (Homo sapiens, UniProt Q15831)
T4 sequence (Q15831 whole entry): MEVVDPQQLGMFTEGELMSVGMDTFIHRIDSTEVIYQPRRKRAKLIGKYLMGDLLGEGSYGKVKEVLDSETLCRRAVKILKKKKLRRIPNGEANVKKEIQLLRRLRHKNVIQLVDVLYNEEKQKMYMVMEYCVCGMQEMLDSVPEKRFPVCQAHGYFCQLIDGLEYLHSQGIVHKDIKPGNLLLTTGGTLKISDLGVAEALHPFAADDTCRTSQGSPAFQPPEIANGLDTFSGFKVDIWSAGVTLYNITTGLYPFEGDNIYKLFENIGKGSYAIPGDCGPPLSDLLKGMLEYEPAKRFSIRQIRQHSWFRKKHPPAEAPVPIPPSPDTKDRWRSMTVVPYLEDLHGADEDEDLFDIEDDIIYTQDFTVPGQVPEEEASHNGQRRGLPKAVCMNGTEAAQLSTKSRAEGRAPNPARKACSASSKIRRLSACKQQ

[5] = molecular target: Calcium/calmodulin-dependent protein kinase type II subunit gamma (Homo sapiens, UniProt Q13555)
Sequence of Calcium/calmodulin-dependent protein kinase type II subunit gamma (Q13555 whole entry): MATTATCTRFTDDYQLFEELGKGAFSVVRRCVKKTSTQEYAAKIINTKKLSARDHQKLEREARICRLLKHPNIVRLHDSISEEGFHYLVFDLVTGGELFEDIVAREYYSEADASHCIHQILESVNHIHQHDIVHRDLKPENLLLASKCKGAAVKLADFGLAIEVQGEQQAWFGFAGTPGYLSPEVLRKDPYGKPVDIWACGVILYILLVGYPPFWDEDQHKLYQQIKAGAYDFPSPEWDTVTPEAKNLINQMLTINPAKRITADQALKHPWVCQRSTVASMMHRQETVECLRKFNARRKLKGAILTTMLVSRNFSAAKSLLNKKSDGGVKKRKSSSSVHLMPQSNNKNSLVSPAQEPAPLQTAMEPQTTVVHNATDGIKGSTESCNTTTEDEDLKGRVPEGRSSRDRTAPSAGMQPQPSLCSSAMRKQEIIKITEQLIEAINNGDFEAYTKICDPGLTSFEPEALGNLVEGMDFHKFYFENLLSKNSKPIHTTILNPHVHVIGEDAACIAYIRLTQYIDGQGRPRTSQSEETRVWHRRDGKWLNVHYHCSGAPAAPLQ

[6] = molecular target: Dual specificity tyrosine-phosphorylation-regulated kinase 1A (Homo sapiens, UniProt Q13627)
[7] = molecular target: Serine/threonine-protein kinase N2 (Homo sapiens, UniProt Q16513)
Sequence of Serine/threonine-protein kinase N2 (Q16513 whole entry): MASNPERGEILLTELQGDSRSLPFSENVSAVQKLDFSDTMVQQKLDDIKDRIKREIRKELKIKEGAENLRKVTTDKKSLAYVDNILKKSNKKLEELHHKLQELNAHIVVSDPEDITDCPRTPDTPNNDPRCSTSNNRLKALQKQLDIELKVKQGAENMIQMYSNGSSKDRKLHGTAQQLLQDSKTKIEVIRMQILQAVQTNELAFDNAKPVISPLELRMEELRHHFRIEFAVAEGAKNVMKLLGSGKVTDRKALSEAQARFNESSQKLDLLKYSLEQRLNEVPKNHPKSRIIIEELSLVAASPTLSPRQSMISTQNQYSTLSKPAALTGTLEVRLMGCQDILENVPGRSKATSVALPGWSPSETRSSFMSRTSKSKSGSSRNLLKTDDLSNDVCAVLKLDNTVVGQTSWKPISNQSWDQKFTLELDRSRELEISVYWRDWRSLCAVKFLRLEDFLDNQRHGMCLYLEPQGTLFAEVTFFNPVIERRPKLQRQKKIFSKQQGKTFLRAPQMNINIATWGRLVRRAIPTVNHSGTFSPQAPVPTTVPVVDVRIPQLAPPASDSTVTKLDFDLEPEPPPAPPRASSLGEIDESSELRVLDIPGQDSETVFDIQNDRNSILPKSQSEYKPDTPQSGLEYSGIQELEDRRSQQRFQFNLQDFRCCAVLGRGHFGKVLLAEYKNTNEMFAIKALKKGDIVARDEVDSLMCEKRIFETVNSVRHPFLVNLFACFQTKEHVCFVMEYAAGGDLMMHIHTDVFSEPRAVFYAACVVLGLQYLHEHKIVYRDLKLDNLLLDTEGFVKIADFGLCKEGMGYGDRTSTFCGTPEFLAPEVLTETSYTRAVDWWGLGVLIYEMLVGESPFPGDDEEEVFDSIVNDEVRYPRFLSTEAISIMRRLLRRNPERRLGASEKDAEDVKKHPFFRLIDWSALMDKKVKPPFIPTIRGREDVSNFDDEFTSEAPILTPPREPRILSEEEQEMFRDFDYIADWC

Row | Kd [1] | Kd [2] | Kd (Aurora kinase A) | Kd (Activin receptor type-1) | Kd [3] | Kd [4] | Kd [5] | Kd [6] | Kd [7] | SMILES
1 | > 30 µM (inactive) | > 30 µM (inactive) | > 30 µM (inactive) | 0.458 µM (active) | > 30 µM (inactive) | > 30 µM (inactive) | > 30 µM (inactive) | > 30 µM (inactive) | > 30 µM (inactive) | CN1CCC(CNc2ccc3ncc(-c4cccc(OC(F)(F)F)c4)n3n2)CC1 [SGI-1776]
2 | > 30 µM (inactive) | > 30 µM (inactive) | > 30 µM (inactive) | > 30 µM (inactive) | > 30 µM (inactive) | > 30 µM (inactive) | > 30 µM (inactive) | > 30 µM (inactive) | > 30 µM (inactive) | Cc1c(F)cc(C(=O)NC2CC2)cc1-c1ccc(C(=O)NCC(C)(C)C)cn1 [LOSMAPIMOD]
3 | > 30 µM (inactive) | > 30 µM (inactive) | > 30 µM (inactive) | > 30 µM (inactive) | > 30 µM (inactive) | > 30 µM (inactive) | > 30 µM (inactive) | > 30 µM (inactive) | > 30 µM (inactive) | CC[C@@H]1C(=O)N(C)c2cnc(Nc3ccc(C(=O)N[C@H]4CC[C@H](N5CCN(CC6CC6)CC5)CC4)cc3OC)nc2N1C(C)C [VOLASERTIB]
4 | > 30 µM (inactive) | > 30 µM (inactive) | > 30 µM (inactive) | > 30 µM (inactive) | > 30 µM (inactive) | > 30 µM (inactive) | > 30 µM (inactive) | > 30 µM (inactive) | > 30 µM (inactive) | Cc1cc([C@@H](C)Nc2ccccc2C(=O)O)c2nc(N3CCOCC3)cc(=O)n2c1 [AZD-6482]
5 | > 30 µM (inactive) | > 30 µM (inactive) | > 30 µM (inactive) | > 30 µM (inactive) | > 30 µM (inactive) | > 30 µM (inactive) | > 30 µM (inactive) | > 30 µM (inactive) | > 30 µM (inactive) | COCCNCc1ccc(-c2cc3nccc(Oc4ccc(NC(=S)NC(=O)Cc5ccc(F)cc5)cc4F)c3s2)nc1 [GLESATINIB]
6 | > 30 µM (inactive) | > 30 µM (inactive) | > 30 µM (inactive) | > 30 µM (inactive) | > 30 µM (inactive) | > 30 µM (inactive) | > 30 µM (inactive) | > 30 µM (inactive) | > 30 µM (inactive) | COc1ccc(-c2ccc3c(N4CCOC[C@@H]4C)nc(N4CCOC[C@@H]4C)nc3n2)cc1CO [AZD-8055]
7 | > 30 µM (inactive) | > 30 µM (inactive) | > 30 µM (inactive) | > 30 µM (inactive) | > 30 µM (inactive) | > 30 µM (inactive) | 0.247 µM (active) | > 30 µM (inactive) | > 30 µM (inactive) | CN(C)C(=O)c1cc2cnc(Nc3ccc(N4CCNCC4)cn3)nc2n1C1CCCC1 [RIBOCICLIB]
8 | > 30 µM (inactive) | > 30 µM (inactive) | > 30 µM (inactive) | > 30 µM (inactive) | > 30 µM (inactive) | > 30 µM (inactive) | > 30 µM (inactive) | > 30 µM (inactive) | > 30 µM (inactive) | Cc1cc2c(F)c(Oc3ncnn4cc(OC[C@@H](C)OC(=O)[C@H](C)N)c(C)c34)ccc2[nH]1 [BRIVANIB ALANINATE]

Row | SMILES | Kd [1] | Kd [2] | Kd (Aurora kinase A) | Kd (Activin receptor type-1) | Kd [3] | Kd [4] | Kd [5] | Kd [6] | Kd [7]
9 | COC(=O)[C@@]1(O)C[C@H]2O[C@]1(C)n1c3ccccc3c3c4c(c5c6ccccc6n2c5c31)C(=O)NC4 [K-252A] | 0.182 µM (active) | > 30 µM (inactive) | 0.02 µM (active) | > 30 µM (inactive) | 0.452 µM (active) | > 30 µM (inactive) | 0.173 µM (active) | 4.85 µM (active) | 0.361 µM (active)
10 | Cc1ccc(-n2nc(C(C)(C)C)cc2NC(=O)NCc2cc(F)ccc2Oc2ccc3c(cnn3CCO)c2)cc1 [PEXMETINIB] | > 30 µM (inactive) | > 30 µM (inactive) | > 30 µM (inactive) | > 30 µM (inactive) | > 30 µM (inactive) | > 30 µM (inactive) | > 30 µM (inactive) | > 30 µM (inactive) | > 30 µM (inactive)
